Experimental data taken from the CheMixHub viscosity set.

Test: xn = mol fraction of the nth substance listed

COCCOCCOCCO + O=C1CCCN1
298.15 K, 101 kPa
Details | viscosity [mPa·s]
x1 = 0.0024 | 14.16
x1 = 0.0071 | 13.98
x1 = 0.0099 | 13.92
x1 = 0.0137 | 13.86
x1 = 0.026 | 13.66
x1 = 0.0397 | 13.43
x1 = 0.0605 | 13.11
x1 = 0.085 | 12.74
x1 = 0.1404 | 12.01
x1 = 0.1689 | 11.65
x1 = 0.2026 | 11.29
x1 = 0.24 | 10.92
x1 = 0.2913 | 10.46
x1 = 0.3429 | 10.04
x1 = 0.3916 | 9.679
x1 = 0.4401 | 9.334
x1 = 0.4897 | 9.091
x1 = 0.5674 | 8.598
x1 = 0.6133 | 8.347
x1 = 0.6641 | 8.188
x1 = 0.7172 | 7.889
x1 = 0.7708 | 7.642
x1 = 0.8177 | 7.419
x1 = 0.8659 | 7.145
x1 = 0.9053 | 6.89
x1 = 0.9402 | 6.677
x1 = 0.9788 | 6.466
x2 = 0.009 | 6.323

Nc1ccccc1 + O=[N+]([O-])c1ccccc1
298.15 K, 101 kPa
Details | viscosity [mPa·s]
x2 = 0.1216 | 3.163
x2 = 0.2269 | 2.741
x2 = 0.4 | 2.328
x2 = 0.5602 | 2.082
x2 = 0.6878 | 1.949
x2 = 0.8353 | 1.889
x2 = 0.9171 | 1.836

CC(C)(C)O + OCC(O)CO
viscosity [mPa·s], 101.33 kPa
Details | x2 = 0.1029 | x2 = 0.1996 | x2 = 0.3009 | x2 = 0.4015 | x2 = 0.5001 | x2 = 0.5995 | x2 = 0.6993 | x2 = 0.7992 | x2 = 0.8995
308.15 K | 5.962 | 10.24 | 19.34 | 36.09 | 65.66 | 105.9 | 154.9 | 211.7 | 276
318.15 K | 4.1 | 6.761 | 12.32 | 21.85 | 37.6 | 58.03 | 83.42 | 108.5 | 132.4

NCCN + OCCO
viscosity [mPa·s], 101 kPa
Details | x1 = 0.0872 | x1 = 0.17 | x1 = 0.2572 | x1 = 0.3496 | x1 = 0.3568 | x1 = 0.4448 | x1 = 0.547 | x1 = 0.6556 | x1 = 0.7623 | x1 = 0.8792
293.15 K | 27.84 | 34.57 | 40.29 | 40.83 | – | 34.13 | 21.71 | 11.54 | 5.764 | 2.87
298.15 K | 22.44 | 27.12 | 31.13 | 31.21 | – | 26.03 | 16.95 | 9.305 | 4.829 | 2.474
303.15 K | 18.11 | 21.75 | 24.48 | 24.17 | 22.85 | 20.15 | – | 7.547 | 4.093 | 2.165
308.15 K | 14.79 | 17.62 | 19.51 | 19.04 | – | 15.91 | 10.76 | – | 3.514 | 1.914
313.15 K | 12.24 | 14.39 | 15.71 | 15.26 | – | 12.72 | 8.758 | 5.248 | 3.031 | 1.715
318.15 K | 10.22 | 11.87 | 12.84 | 12.3 | – | 10.35 | 7.228 | 4.445 | 2.644 | 1.537
323.15 K | 8.597 | 9.828 | 10.57 | 10.09 | – | 8.503 | 6.053 | 3.8 | 2.317 | 1.383
